Experimental data as given in patent US12371432B2, “Haloallylamine compounds and application thereof” (TransThera Sciences (Nanjing), Inc., priority 2019, dated 2025).
Counter-ions that a name gives are not always drawn. Like-named read-outs stand apart in the source and are kept apart here.

Experiments:
Rat PK evaluation = assay type: in vivo; conditions: plasma, SD rats; for bioavailability: n=3, read-out: F % (absolute bioavailability); for clearance: n=3, read-out: Cl_obs iv (clearance rate) (converted); for Vd: n=3, read-out: Vz_obs iv (apparent volume of distribution); for Tmax: n=3, median, read-out: Tmax po (time of maximum observed plasma concentration)
Experimental: Animal Administration and Sample Collection:
The study compounds A1, A6, A32, A41 and A42 were each dissolved in normal saline to prepare solutions. The solutions of the compounds were separately administered to SD rats by intragastric administration at a dose of 5.0 mg/kg. Time points for blood collection were 15 min, 30 min, 1 h, 2 h, 4 h, 6 h, 8 h and 24 h.
The study compounds A1, A6, A32, A41 and A42 were each dissolved in normal saline to prepare solutions. The solutions of the compounds were separately administered to SD rats by intravenous push at a dose of 1.0 mg/kg. Time points for blood collection were 5 min, 15 min, 30 min, 1 h, 2 h, 4 h, 6 h, 8 h and 24 h.
Venous catheterization was performed the day before the administration. Subsequent to the administration, about 300 μL of blood was collected from the jugular vein and put into anticoagulation tubes containing EDTA-K2. Preparation was performed within 30 min after the blood collection. Plasma samples were obtained by centrifugation at 8,000 rpm for 6 min at 4° C., and were stored in a −80° C. refrigerator before plasma testing.
(1) the samples to be tested were taken out of the −80° C. refrigerator, naturally thawed at room temperature and then swirled for 5 min;
(2) 20 μL of plasma sample was accurately pipetted into a 1.5 mL centrifuge tube;
(3) 200 μL of internal standard working solution (solution of tolbutamide in methanol) with a concentration of 100 ng/mL was added, and uniform mixing was performed;
(4) after 5 min of swirling, centrifugation was performed at 12,000 rpm for 5 min;
(5) 50 μL of supernate was accurately pipetted into a 96-well plate added with 150 μL water/well in advance;
(6) uniform mixing was performed by swirling for 5 min, followed by LC-MS/MS assay.
Analyst 1.6.3 from AB Sciex was used to output concentration results of tested compounds. Microsoft Excel was used to calculate parameters such as mean value, standard deviation and variation coefficient (excluding those outputted directly by Analyst 1.6.3). Pharsight Phoenix 6.1 software NCA was adopted to calculate PK parameters (Tmax was median).

MAO-A = target: T1, MAO-A (Homo sapiens, UniProt P21397); assay: Selectivity against MAO-A enzyme (MAO-Glo); assay type: biochemical
T1 construct: purchased Active Motif
T1 sequence (P21397 1-527): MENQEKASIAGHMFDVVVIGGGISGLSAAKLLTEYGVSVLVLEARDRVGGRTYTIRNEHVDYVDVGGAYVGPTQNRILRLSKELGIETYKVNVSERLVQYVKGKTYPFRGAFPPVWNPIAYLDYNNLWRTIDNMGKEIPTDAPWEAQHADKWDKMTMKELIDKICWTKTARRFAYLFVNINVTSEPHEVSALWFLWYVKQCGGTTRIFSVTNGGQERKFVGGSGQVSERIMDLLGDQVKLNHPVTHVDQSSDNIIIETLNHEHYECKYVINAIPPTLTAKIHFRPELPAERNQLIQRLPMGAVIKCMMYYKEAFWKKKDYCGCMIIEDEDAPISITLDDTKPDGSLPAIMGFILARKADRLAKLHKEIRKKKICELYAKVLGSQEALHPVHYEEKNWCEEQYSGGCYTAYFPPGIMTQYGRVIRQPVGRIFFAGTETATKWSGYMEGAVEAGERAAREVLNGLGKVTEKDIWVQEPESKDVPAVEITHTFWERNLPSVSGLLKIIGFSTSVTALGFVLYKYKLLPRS
Experimental: (1) Instrument, Consumable and Reagent
Microplate reader (Perkin Elmer, EnVision), 384-well plate (Perkin Elmer), centrifuge (Eppendorf), MAO-Glo™ (Promega), MAO-A (Active Motif) and MAO-B (Active Motif).
(2) Preparation of Concentration Gradient Compound Solutions
An appropriate amount of the compound to be tested was taken, dissolved in DMSO to 10 mM and then stored. The solution was then gradiently diluted 4-fold with DMSO, 6 concentration gradients in total.
(3) Preparation of Enzyme Solutions
MAO-A/B mother liquor was diluted with the experimental buffer for MAO-A/B to obtain enzyme solutions of 2× concentrations.
(4) Preparation of Substrate Mixtures of 2× Concentrations
The mother liquor of MAO-A/B substrate mixture was diluted with the experimental buffer for MAO-A/B to obtain substrate mixtures of 2× concentrations.
200 nL compound solutions or solvents of different concentrations and 10 μL MAO-A/B enzyme solutions of 2× concentrations were added into a 384-well plate, centrifuged at 1,000 rpm for 60 s, shaken to be mixed uniformly and then incubated at room temperature for 15 min. 10 μL substrate mixtures of 2× concentrations were then added into each well, and reaction was initiated. The 384-well plate was centrifuged at 1,000 rpm for 60 s, shaken for a uniform mixing and then incubated at room temperature for 60 min. 20 μL of test stop solution was added to stop reaction. Centrifugation was performed at 1,000 rpm for 60 s, and shaking was performed for uniform mixing. After 30 min of standing, the microplate reader was used to perform reading.
The inhibition rate was calculated according to the following formula: Inhibition rate (%)=(Signal_Max-Signal_sample)/(Signal_Max-Signal_min)×100 (6) Fitting of Dose-Response Curve
With the log value of concentration as the X axis and the percent inhibition rate as the Y axis, the log (inhibitor) vs. response-variable slope of analysis software GraphPad Prism 5 was used to fit a dose-response curve, thus obtaining the IC50 value of activity of each compound against the enzyme.

[1] = IV 1 mg/kg, n=3, read-out: AUCinf iv (area under plasma concentration-time curve 0-∞)
[2] = IV 1 mg/kg, n=3, read-out: tz1/2 iv (terminal half-life) (converted)
[3] = PO 5 mg/kg, n=3, read-out: AUCinf po (area under plasma concentration-time curve 0-∞)
[4] = PO 5 mg/kg, n=3, read-out: tz1/2 po (terminal half-life) (converted)

| Structure (SMILES) | bioavailability (Rat PK evaluation; IV 1 mg/kg, PO 5 mg/kg) [%] | AUC(0-inf) (Rat PK evaluation; [1]) [ng·h/mL] | clearance (Rat PK evaluation; IV 1 mg/kg) [mL/min/kg] | Vd (Rat PK evaluation; IV 1 mg/kg) [L/kg] | half-life (Rat PK evaluation; [2]) [min] | Tmax (Rat PK evaluation; PO 5 mg/kg) [min] | AUC(0-inf) (Rat PK evaluation; [3]) [ng·h/mL] | half-life (Rat PK evaluation; [4]) [min] | IC50 (MAO-A) [µM] |
| --- | --- | --- | --- | --- | --- | --- | --- | --- | --- |
| NC/C(=C\F)Cn1ncc2c1CCN(C1CC1)C2=O [Compound A2 hydrochloride, (E)-1-(2-(aminomethyl)-3-fluoroallyl)-5-cyclopropyl-1,5,6,7-tetrahydro-4H-pyrazolo[4,3-c]pyridin-4-one] | – | – | – | – | – | – | – | – | > 100 |
| CCN1CCc2nn(C/C(=C/F)CN)cc2C1=O [Compound A6 hydrochloride, (E)-2-(2-(aminomethyl)-3-fluoroallyl)-5-ethyl-2,5,6,7-tetrahydro-4H-pyrazolo[4,3-c]pyridin-4-one] | 76.3 | 445 | 37.8 | 2.38 | 43.8 | 30 | 1700 | 65.4 | 89.1 |
| CC(C)(C)N1CCc2nn(C/C(=C/F)CN)cc2C1=O [Compound A7 hydrochloride, (E)-2-(2-(aminomethyl)-3-fluoroallyl)-5-tert-butyl-2,5,6,7-tetrahydro-4H-pyrazolo[4,3-c]pyridin-4-one] | – | – | – | – | – | – | – | – | > 100 |
| CCn1ccc2nn(C/C(=C/F)CN)cc2c1=O [Compound A28 hydrochloride, (E)-2-(2-(aminomethyl)-3-fluoroallyl)-5-ethyl-2,5-dihydro-4H-pyrazolo[4,3-c]pyridin-4-one] | – | – | – | – | – | – | – | – | > 100 |
| CCn1ccc2c(cnn2C/C(=C/F)CN)c1=O [Compound A29 hydrochloride, (E)-1-(2-(aminomethyl)-3-fluoroallyl)-5-ethyl-1,5-dihydro-4H-pyrazolo[4,3-c]pyridin-4-one] | – | – | – | – | – | – | – | – | 87.7 |
| Cl.NC/C(=C\F)Cn1cc2c(c1Br)CCN(C1CC1)C2=O [Compound A32 hydrochloride, (E)-2-(2-(aminomethyl)-3-fluoroallyl)-1-bromo-5-cyclopropyl-2,5,6,7-tetrahydro-4H-pyrrolo[3,4-c]pyridin-4-one] | 173 | 572 | 29.2 | 1.2 | 28.8 | 15 | 4950 | 45 | 61 |
| NC/C(=C\F)Cn1c(Br)c2c(c1Br)C(=O)N(C1CC1)CC2 [Compound A33 hydrochloride, (E)-2-(2-(aminomethyl)-3-fluoroallyl)-1,3-dibromo-5-cyclopropyl-2,5,6,7-tetrahydro-4H-pyrrolo[3,4-c]pyridin-4-one] | – | – | – | – | – | – | – | – | 55.9 |
| Cc1c2c(cn1C/C(=C/F)CN)C(=O)N(C1CC1)CC2 [Compound A35 hydrochloride, (E)-2-(2-(aminomethyl)-3-fluoroallyl)-5-cyclopropyl-1-methyl-2,5,6,7-tetrahydro-4H-pyrrolo[3,4-c]pyridin-4-one] | – | – | – | – | – | – | – | – | 8.81 |
| Cl.NC/C(=C\F)Cn1cc2c(c1Cl)CCN(C1CC1)C2=O [Compound A42 hydrochloride, (E)-2-(2-(aminomethyl)-3-fluoroallyl)-1-chloro-5-cyclopropyl-2,5,6,7-tetrahydro-4H-pyrrolo[3,4-c]pyridin-4-one] | 151 | 591 | 29.5 | 1.29 | 31.8 | 60 | 4480 | 79.8 | 47.6 |

The next lines start with the values.

| bioavailability (Rat PK evaluation; IV 1 mg/kg, PO 5 mg/kg) [%] | AUC(0-inf) (Rat PK evaluation; [1]) [ng·h/mL] | clearance (Rat PK evaluation; IV 1 mg/kg) [mL/min/kg] | Vd (Rat PK evaluation; IV 1 mg/kg) [L/kg] | half-life (Rat PK evaluation; [2]) [min] | Tmax (Rat PK evaluation; PO 5 mg/kg) [min] | AUC(0-inf) (Rat PK evaluation; [3]) [ng·h/mL] | half-life (Rat PK evaluation; [4]) [min] | IC50 (MAO-A) [µM] | Structure (SMILES) |
| --- | --- | --- | --- | --- | --- | --- | --- | --- | --- |
| 87 | 545 | 30.8 | 2.31 | 52.2 | 120 | 2370 | 70.2 | – | NC/C(=C\F)Cn1cc2c(n1)CCN(C1CC1)C2=O [Compound A1, (E)-2-(2-(aminomethyl)-3-fluoroallyl)-5-cyclopropyl-2,5,6,7-tetrahydro-4H-pyrazolo[4,3-c]pyridin-4-one] |
| – | – | – | – | – | – | – | – | > 100 | NC/C(=C\F)Cn1cc2c(c1)C(=O)N(C1CC1)CC2 [Compound A22, (E)-2-(2-(aminomethyl)-3-fluoroallyl)-5-cyclopropyl-2,5,6,7-tetrahydro-4H-pyrrolo[3,4-c]pyridin-4-one] |
| – | – | – | – | – | – | – | – | > 100 | CCN1CCc2cn(C/C(=C/F)CN)cc2C1=O [Compound A25, (E)-2-(2-(aminomethyl)-3-fluoroallyl)-5-ethyl-2,5,6,7-tetrahydro-4H-pyrrolo[3,4-c]pyridin-4-one] |
| 61.9 | 531 | 31.5 | 1.53 | 33.6 | 60 | 1640 | 107 | > 100 | NC/C(=C\F)Cn1cc2c(=O)n(C3CC3)ccc2n1 [Compound A41, (E)-2-(2-(aminomethyl)-3-fluoroallyl)-5-cyclopropyl-2,5-dihydro-4H-pyrazolo[4,3-c]pyridin-4-one] |
| – | – | – | – | – | – | – | – | > 100 | CNC(=O)c1cnn(C/C(=C/F)CN)c1 [Compound B1, (E)-1-(2-(aminomethyl)-3-fluoroallyl)-N-methyl-1H-pyrazole-4-carboxamide] |
